How the values were obtained:
Format in all cases: in vivo
[1] = system: Alopecurus myosuroides; assay: Herbicidal pre-emergence action; details: pre-emergence method, 80 g/ha, greenhouse, visual assessment vs untreated controls
Outline: (§1)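 Seeds sown in sandy loam and covered; WP-formulated compounds applied to the soil surface as aqueous suspension at 600 l/ha with 0.2% wetting agent, at varying rates. Greenhouse-grown; emergence damage scored visually after three weeks versus untreated controls (100% = plants dead, 0% = like control).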

[2] = system: Echinocloa crus-galli; assay: Herbicidal pre-emergence action; details: pre-emergence method, 80 g/ha, greenhouse, visual assessment vs untreated controls
Outline: as §1

[3] = system: Lolium multiflorum; assay: Herbicidal pre-emergence action; details: pre-emergence method, 80 g/ha, greenhouse, visual assessment vs untreated controls
Outline: as §1

[4] = system: Setaria viridis; assay: Herbicidal pre-emergence action; details: pre-emergence method, 80 g/ha, greenhouse, visual assessment vs untreated controls
Outline: as §1

[5] = system: Alopecurus myosuroides; assay: Herbicidal post-emergence action; details: post-emergence method; for herbicidal effect against ALOMY (Alopecurus myosuroides): 80 g/ha
Outline: (§2)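 Visual % herbicidal effect vs untreated controls (100% = plants dead, 0% = as control), ~3 wk after spraying. Plants sown in sandy loam, greenhouse-grown, treated at one-leaf stage (2–3 wk post-sowing). WP formulations, 600 l/ha water + 0.2% wetting agent, various doses.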

[6] = system: Echinocloa crus-galli; assay: Herbicidal post-emergence action; details: post-emergence method; for herbicidal effect against ECHCG (Echinochloa crus-galli): 80 g/ha
Outline: as §2

[7] = system: Lolium multiflorum; assay: Herbicidal post-emergence action; details: post-emergence method; for herbicidal effect against LOLMU (Lolium multiflorum): 80 g/ha
Outline: as §2

[8] = system: Setaria viridis; assay: Herbicidal post-emergence action; details: post-emergence method; for herbicidal effect against SETVI (Setaria viridis): 80 g/ha
Outline: as §2

[9] = system: monocotylidonous and dicotylidonous weed and crop plants; assay: Herbicidal pre-emergence action (other test plants); details: pre-emergence method, 80 g/ha, greenhouse, visual assessment vs untreated controls
Outline: as §1

[10] = system: monocotylidonous and dicotylidonous weed and crop plants; assay: Herbicidal post-emergence action (other test plants); details: post-emergence method; for herbicidal effect against AVEFA (Avena fatua): 80 g/ha
Outline: as §2

SMILES | herbicidal effect ALOMY [1] [%] | herbicidal effect ECHCG [2] [%] | herbicidal effect LOLMU [3] [%] | herbicidal effect SETVI [4] [%] | herbicidal effect against ALOMY (Alopecurus myosuroides) [5] [%] | herbicidal effect against ECHCG (Echinochloa crus-galli) [6] [%] | herbicidal effect against LOLMU (Lolium multiflorum) [7] [%] | herbicidal effect against SETVI (Setaria viridis) [8] [%] | herbicidal effect AVEFA [9] [%] | herbicidal effect against AVEFA (Avena fatua) [10] [%] | pest or weed control at 80 g/ha ([5]; Alopecurus myosuroides, 504 h, read-out: herbicidal effect against ALOMY (Alopecurus myosuroides)) [%] | pest or weed control at 80 g/ha ([6]; Echinochloa crus-galli, 504 h, read-out: herbicidal effect against ECHCG (Echinochloa crus-galli)) [%] | pest or weed control at 80 g/ha ([7]; Lolium multiflorum, 504 h, read-out: herbicidal effect against LOLMU (Lolium multiflorum)) [%] | pest or weed control at 80 g/ha ([8]; Setaria viridis, 504 h, read-out: herbicidal effect against SETVI (Setaria viridis)) [%] | pest or weed control at 80 g/ha ([10]; 504 h, Avena fatua, read-out: herbicidal effect against AVEFA (Avena fatua)) [%]
CCc1cc(C)cc(C)c1C1=C(OC(=O)C(C)(C)C)C2CC3(CC2C1=O)OCC=CCO3 (centres unmarked) [I-b-75] | 60 | 100 | 100 | 70 | 100 | 100 | 100 | 100 | 60 | 90 |  |  |  |  | 
CCc1cc(C)cc(C)c1C1=C(OC(=O)C(C)C)C2CC3(CC2C1=O)OCC=CCO3 (centres unmarked) [I-b-76] | 100 | 100 | 100 | 70 | 90 | 100 | 100 | 100 | 60 | 90 |  |  |  |  | 
CCc1cc(C)cc(C)c1C1=C(OC(=O)C(C)(C)C)C2CC3(CC2C1=O)OCCCCO3 (centres unmarked) [I-b-78] | 100 | 100 | 100 | 60 | 100 | 100 | 100 | 70 | 60 | 70 |  |  |  |  | 
CCc1cc(C)cc(C)c1C1=C(OC(=O)C(C)C)C2CC3(CC2C1=O)OCCO3 (centres unmarked) [I-b-79] | 70 | 100 | 100 | 80 | 90 | 100 | 100 | 100 | 70 | 100 |  |  |  |  | 
CCc1cc(C)cc(CC)c1C1=C(OC(=O)OC(C)C)C2CC3(COC(C)(C)O3)CC2C1=O (centres unmarked) [I-c-2] | 90 | 40 | 100 | 60 | 90 | 40 | 100 | 40 | 50 | 40 |  |  |  |  | 
C=C1CC2C(=O)C(c3c(CC)cc(C)cc3CC)=C(OC(=O)OCC)C2C1 (centres unmarked) [I-c-5, 2-(2,6-diethyl-4-methylphenyl)-5-methylidene-3-oxo-3,3a,4,5,6,6a-hexahydropentalen-1-yl ethyl carbonate] | 80 | 90 | 80 | 80 |  |  |  |  | 80 |  | 20 | 100 | 90 | 90 | 30
CCOC(=O)OC1=C(c2c(CC)cc(C)cc2CC)C(=O)C2CC3(CC12)OC(C)CC(C)O3 (centres unmarked) [I-c-13] | 90 | 60 | 80 | 60 | 70 | 100 | 100 | 90 | 50 | 80 |  |  |  |  | 
CCOC(=O)OC1=C(c2c(CC)cc(C)cc2CC)C(=O)C2CC3(CC12)OC(C)(C)C(C)(C)O3 (centres unmarked) [I-c-18] | 90 | 100 | 100 | 10 | 60 | 80 | 90 | 0 | 0 | 0 |  |  |  |  | 
CCc1cc(C)cc(CC)c1C1=C(OC(=O)OC)C2CC3(CC2C1=O)OCC=CCO3 (centres unmarked) [I-c-21] | 90 | 100 | 100 | 100 | 90 | 100 | 100 | 100 | 70 | 100 |  |  |  |  | 
CCOC(=O)OC1=C(c2c(CC)cc(C)cc2CC)C(=O)C2CC3(CC12)OCC(C)(C)CO3 (centres unmarked) [I-c-22] | 100 | 100 | 100 | 100 | 100 | 100 | 100 | 100 | 70 | 100 |  |  |  |  | 
CCc1cc(C)cc(CC)c1C1=C(OC(=O)OC)C2CC3(CC2C1=O)OCC(C)(C)CO3 (centres unmarked) [I-c-23] | 100 | 100 | 100 | 100 | 100 | 100 | 100 | 100 | 70 | 100 |  |  |  |  | 
CCOC(=O)OC1=C(c2c(CC)cc(C)cc2CC)C(=O)C2CC3(CC12)OCC(OC)CO3 (centres unmarked) [I-c-25] | 100 | 100 | 100 | 80 | 100 | 100 | 100 | 100 | 90 | 100 |  |  |  |  | 
CCOC(=O)OC1=C(c2c(CC)cc(C)cc2CC)C(=O)C2CC3(CC12)OCC(OCC)CO3 (centres unmarked) [I-c-26] | 100 | 100 | 100 | 100 | 100 | 100 | 100 | 100 | 80 | 100 |  |  |  |  | 
CCOC1COC2(CC3C(=O)C(c4c(CC)cc(C)cc4CC)=C(OC(=O)OC)C3C2)OC1 (centres unmarked) [I-c-27] | 100 | 100 | 100 | 90 | 100 | 100 | 100 | 100 | 80 | 100 |  |  |  |  | 
CCc1cc(C)cc(CC)c1C1=C(OC(=O)OC(C)C)C2CC3(CC2C1=O)OCCCO3 (centres unmarked) [I-c-34] | 90 | 100 | 100 | 80 | 100 | 100 | 100 | 90 | 60 | 100 |  |  |  |  | 
CCOC(=O)OC1=C(c2c(CC)cc(C)cc2CC)C(=O)C2CC(=NOCC3CC3)CC12 (centres unmarked) [I-c-40] | 80 | 0 | 80 | 40 | 100 | 100 | 100 | 100 | 60 | 0 |  |  |  |  | 
C#CCON=C1CC2C(=O)C(c3c(CC)cc(C)cc3CC)=C(OC(=O)OCC)C2C1 (centres unmarked) [I-c-41] | 90 | 60 | 100 | 40 | 100 | 100 | 100 | 20 | 40 | 80 |  |  |  |  | 

From patent US8367873B2, “Phenyl-substituted bicyclooctane-1,3-dione derivatives” (Bayer Cropscience AG, priority 2008, dated 2013)
